Source: patent US8163779B2, “Glucokinase activators” (Takeda San Diego, Inc., priority 2006, dated 2012)

biological target: T1, glucokinase (GK) (Homo sapiens, UniProt P35557); experiment: enzymatic glucokinase activity assay (ATP consumption, KinaseGlo luminescence); format: biochemical; conditions: recombinant GK residues 12-465; 5 μM ATP, 5 mM Glucose; Kact = concentration that displays 50% of the maximal increase in GK activity; read-out: pKact
T1 construct: I.D. No. 1 corresponds to residues 12-465 of glucokinase; made in house; host or cells: E. coli DH10b-T1r
T1 sequence (P35557 with tags, fused parts or gaps isoform P35557-2): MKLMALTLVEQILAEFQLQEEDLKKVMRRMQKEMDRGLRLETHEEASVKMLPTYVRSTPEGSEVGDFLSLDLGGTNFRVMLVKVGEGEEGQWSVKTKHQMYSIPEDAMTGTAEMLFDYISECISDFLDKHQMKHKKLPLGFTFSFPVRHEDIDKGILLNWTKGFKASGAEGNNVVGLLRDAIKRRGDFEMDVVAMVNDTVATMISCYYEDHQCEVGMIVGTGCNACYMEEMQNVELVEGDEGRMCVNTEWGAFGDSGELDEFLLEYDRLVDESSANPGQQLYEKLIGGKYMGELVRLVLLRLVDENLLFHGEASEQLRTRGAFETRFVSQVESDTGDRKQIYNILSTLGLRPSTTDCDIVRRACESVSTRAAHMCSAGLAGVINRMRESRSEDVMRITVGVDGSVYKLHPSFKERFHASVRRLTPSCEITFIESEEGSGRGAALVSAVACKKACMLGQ
Method in brief: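 Activation was scored as ATP consumption, quantified by KinaseGlo luciferase luminescence after a 60 min room-temperature reaction. Reactions contained E. coli-expressed, purified GK, 5 μM ATP, 5 mM glucose, 10 mM MgCl2, 0.01% Brij35 and 2% DMSO at pH 7.2; pKact was fitted non-linearly.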

Q: How did the EC50 turn out when `O=C(Nc1ncc(Cc2ccc(F)cc2)s1)C(CC1CCOCC1)n1ccc(S(=O)(=O)C2CC2)cc1=O` (stereo not drawn) [Example 138, 2-(4-(cyclopropylsulfonyl)-2-oxopyridin-1(2H)-yl)-N-(5-(4-fluorobenzyl)thiazol-2-yl)-3-(tetrahydro-2H-pyran-4-yl)propanamide] was run?
A: Its EC50 is 1.58 to 15.8 µM.

Q: `O=C(Nc1nccs1)C(CC1CCOCC1)n1cc(S(=O)(=O)N2CCCC2)ccc1=O` (stereo not drawn) [Example 139, 2-(2-oxo-5-(pyrrolidin-1-ylsulfonyl)pyridin-1(2H)-yl)-3-(tetrahydro-2H-pyran-4-yl)-N-(thiazol-2-yl)propanamide] was tested. Which EC50 did it give?
A: The EC50 was 1.58 to 15.8 µM.

Q: How did the EC50 turn out when `O=C(Nc1ncc(Cl)s1)C(CC1CCOCC1)n1cc(S(=O)(=O)N2CCCC2)ccc1=O` (stereo not drawn) [Example 140, N-(5-chlorothiazol-2-yl)-2-(2-oxo-5-(pyrrolidin-1ylsulfonyl)pyridin-1(2H)-yl)-3-(tetrahydro-2H-pyran-4-yl)propanamide] was run?
A: The EC50 was 1.58 to 15.8 µM.

Q: `Cc1cc(S(=O)(=O)Cc2ccco2)cc(=O)n1[C@@H](CC1CCOCC1)C(=O)Nc1ncc(Cl)s1` [Example 141, (S)-N-(5-chlorothiazol-2-yl)-2-(4-(furan-2-ylmethylsulfonyl)-6-methyl-2-oxopyridin-1(2H)-yl)-3-(tetrahydro-2H-pyran-4-yl)propanamide] was tested. Which EC50 did it give?
A: Its EC50 is < 1.58 µM.

Q: Which EC50 does the source give for `Cc1cc(S(=O)(=O)Cc2ccco2)cc(=O)n1[C@H](CC1CCOCC1)C(=O)Nc1ncc(Cl)s1` [Example 142, (R)-N-(5-chlorothiazol-2-yl)-2-(4-(furan-2-ylmethylsulfonyl)-6-methyl-2-oxopyridin-1(2H)-yl)-3-(tetrahydro-2H-pyran-4-yl)propanamide] here?
A: Its EC50 is > 15.8 µM.

Q: `Cc1cc(-c2ncco2)cc(=O)n1C(CC1CCCCC1)C(=O)Nc1ncc(Cl)s1` (stereo not drawn) [Example 143, N-(5-chlorothiazol-2-yl)-3-cyclohexyl-2-(6-methyl-4-(oxazol-2-yl)-2-oxopyridin-1(2H)-yl)propanamide] was tested. Which EC50 did it give?
A: The EC50 was 1.58 to 15.8 µM.

Q: For `Cc1cc(S(=O)(=O)Cc2ccco2)cc(=O)n1C(CC1CCOCC1)C(=O)Nc1ncc(Cc2ccc(F)cc2)s1` (stereo not drawn) [Example 144, N-(5-(4-fluorobenzyl)thiazol-2-yl)-2-(4-(furan-2-ylmethylsulfonyl)-6-methyl-2-oxopyridin-1(2H)-yl)-3-(tetrahydro-2H-pyran-4-yl)propanamide], which EC50 is on record?
A: The EC50 was 1.58 to 15.8 µM.

Q: For `O=C(Nc1ncc(CN2CCOCC2)s1)C(CC1CCOCC1)n1ccc(S(=O)(=O)C2CC2)cc1=O` (stereo not drawn) [Example 145, 2-(4-(cyclopropylsulfonyl)-2-oxopyridin-1(2H)-yl)-N-(5-(morpholinomethyl)thiazol-2-yl)-3-(tetrahydro-2H-pyran-4-yl)propanamide], which EC50 is on record?
A: The EC50 was > 15.8 µM.

Q: For `O=C(Nc1ncc(Cl)s1)C(CC1CCOCC1)n1ccc(S(=O)(=O)CC(F)(F)F)cc1=O` (stereo not drawn) [Example 146, N-(5-chlorothiazol-2-yl)-2-(2-oxo-4-(2,2,2-trifluoroethylsulfonyl)pyridin-1(2H)-yl)-3-(tetrahydro-2H-pyran-4-yl)propanamide], which EC50 is on record?
A: The EC50 was > 15.8 µM.

Q: For `CN1CCN(Cc2cnc(NC(=O)C(CC3CCOCC3)n3ccc(S(=O)(=O)C4CC4)cc3=O)s2)CC1` (stereo not drawn) [Example 147, 2-(4-(cyclopropylsulfonyl)-2-oxopyridin-1(2H)-yl)-N-(5-((4-methylpiperazin-1-yl)methyl)thiazol-2-yl)-3-(tetrahydro-2H-pyran-4-yl)propanamide], which EC50 is on record?
A: Its EC50 is > 15.8 µM.

Q: For `O=C(Nc1ncc(Cl)s1)[C@@H](CC1CCOCC1)n1ccc(S(=O)(=O)CC(F)(F)F)cc1=O` [Example 148, (R)-N-(5-chlorothiazol-2-yl)-2-(2-oxo-4-(2,2,2-trifluoroethylsulfonyl)pyridin-1(2H)-yl)-3-(tetrahydro-2H-pyran-4-yl)propanamide], which EC50 is on record?
A: The EC50 was > 15.8 µM.

Q: How did the EC50 turn out when `O=C(Nc1ncc(Cl)s1)[C@H](CC1CCOCC1)n1ccc(S(=O)(=O)CC(F)(F)F)cc1=O` [Example 149, (S)-N-(5-chlorothiazol-2-yl)-2-(2-oxo-4-(2,2,2-trifluoroethylsulfonyl)pyridin-1(2H)-yl)-3-(tetrahydro-2H-pyran-4-yl)propanamide] was run?
A: Its EC50 is 1.58 to 15.8 µM.

Q: With `CN(C)C(=O)CN1CCN(Cc2cnc(NC(=O)C(CC3CCOCC3)n3ccc(S(=O)(=O)C4CC4)cc3=O)s2)CC1` (stereo not drawn) [Example 150, 2-(4-(cyclopropylsulfonyl)-2-oxopyridin-1(2H)-yl)-N-(5-((4-(2-(dimethylamino)-2-oxoethyl)piperazin-1-yl)methyl)thiazol-2-yl)-3-(tetrahydro-2H-pyran-4-yl)propanamide] as the molecule, how does the EC50 read?
A: Its EC50 is > 15.8 µM.

Q: How did the EC50 turn out when `Cc1c(S(=O)(=O)C2CCCC2)cc(=O)n([C@@H](CC2CCOCC2)C(=O)Nc2ncc(F)s2)c1C` [Example 151, (S)-2-(4-(cyclopentylsulfonyl)-5,6-dimethyl-2-oxopyridin-1(2H)-yl)-N-(5-fluorothiazol-2-yl)-3-(tetrahydro-2H-pyran-4-yl)propanamide] was run?
A: The EC50 was < 1.58 µM.

Q: For `Cc1c(S(=O)(=O)C2CCCC2)cc(=O)n([C@H](CC2CCOCC2)C(=O)Nc2ncc(F)s2)c1C` [Example 153, (R)-2-(4-(cyclopentylsulfonyl)-5,6-dimethyl-2-oxopyridin-1(2H)-yl)-N-(5-fluorothiazol-2-yl)-3-(tetrahydro-2H-pyran-4-yl)propanamide], which EC50 is on record?
A: Its EC50 is < 1.58 µM.

Q: How did the EC50 turn out when `Cc1cc(S(=O)(=O)C2CC2)c(N)c(=O)n1[C@H](CC1CCCC1)C(=O)Nc1ncc(F)s1` [Example 154, (R)-2-(3-amino-4-(cyclopropylsulfonyl)-6-methyl-2-oxopyridin-1(2H)-yl)-3-cyclopentyl-N-(5-fluorothiazol-2-yl)propanamide] was run?
A: The EC50 was 1.58 to 15.8 µM.

Q: Which EC50 does the source give for `Cc1cc(S(=O)(=O)C2CC2)c(N)c(=O)n1[C@@H](CC1CCCC1)C(=O)Nc1ncc(F)s1` [Example 155, (S)-2-(3-amino-4-(cyclopropylsulfonyl)-6-methyl-2-oxopyridin-1(2H)-yl)-3-cyclopentyl-N-(5-fluorothiazol2-yl)propanamide] here?
A: Its EC50 is 1.58 to 15.8 µM.

Q: `CC(=O)Nc1ccc(=O)n(C(CC2CCOCC2)C(=O)Nc2ncc(Cl)s2)c1` (stereo not drawn) [Example 156, 2-(5-acetamido-2-oxopyridin-1(2H)-yl)-N-(5-chlorothiazol-2-yl)-3-(tetrahydro-2H-pyran-4-yl)propanamide] was tested. Which EC50 did it give?
A: The EC50 was > 15.8 µM.

Q: With `Cc1cc(S(=O)(=O)C2CC2)cc(=O)n1C(CC1CCOCC1)C(=O)Nc1ncc(Cl)s1` (stereo not drawn) [Example 157, N-(5-chlorothiazol-2-yl)-2-(4-(cyclopropylsulfonyl)-6-methyl-2-oxopyridin-1(2H)-yl)-3-(tetrahydro-2H-pyran-4-yl)propanamide] as the molecule, how does the EC50 read?
A: Its EC50 is 1.58 to 15.8 µM.

Q: Which EC50 does the source give for `Cc1cc(S(=O)(=O)c2cccc(F)c2)cc(=O)n1C(CC1CCOCC1)C(=O)Nc1ncc(Cl)s1` (stereo not drawn) [Example 158, N-(5-chlorothiazol-2-yl)-2-(4-(3-fluorophenylsulfonyl)-6-methyl-2-oxopyridin-1(2H)-yl)-3-(tetrahydro-2H-pyran-4-yl)propanamide] here?
A: Its EC50 is < 1.58 µM.

Q: Which EC50 does the source give for `Cc1cc(S(=O)(=O)c2cccc(F)c2)cc(=O)n1C(CC1CCOCC1)C(=O)Nc1ncc(F)s1` (stereo not drawn) [Example 159, 2-(4-(3-fluorophenylsulfonyl)-6-methyl-2-oxopyridin-1(2H)-yl)-N-(5-fluorothiazol-2-yl)-3-(tetrahydro-2H-pyran-4-yl)propanamide] here?
A: The EC50 was 1.58 to 15.8 µM.

Q: For `Cc1cc(S(=O)(=O)C2CCS(=O)(=O)CC2)cc(=O)n1C(CC1CCCCC1)C(=O)Nc1ncc(Cl)s1` (stereo not drawn) [Example 160, N-(5-chlorothiazol-2-yl)-2-(4-(1,1-dioxotetrahydrothiopyran-4-ylsulfonyl)-6-methyl-2-oxopyndin-1(2H)-yl)-3-cyclohexylpropanamide], which EC50 is on record?
A: Its EC50 is 1.58 to 15.8 µM.

Q: For `Cc1cc(S(=O)(=O)C2CCS(=O)(=O)CC2)cc(=O)n1C(CC1CCCCC1)C(=O)Nc1ncc(F)s1` (stereo not drawn) [Example 161, N-(5-fluorothiazol-2-yl)-2-(4-(1,1-dioxotetrahydrothiopyran-4-ylsulfonyl)-6-methyl-2-oxopyridin-1(2H)-yl)-3-cyclohexyipropanamide], which EC50 is on record?
A: The EC50 was 1.58 to 15.8 µM.

Q: Which EC50 does the source give for `Cc1cc(S(=O)(=O)C2CC2)cc(=O)n1[C@@H](CC1CCCC1)C(=O)Nc1ncc(F)s1` [Example 162, (S)-3-cyclopentyl-2-(4-(cyclopropylsulfonyl)-6-methyl-2-oxopyridin-1(2H)-yl)-N-(5-fluorothiazol-2-yl)propanamide] here?
A: Its EC50 is < 1.58 µM.

Q: For `Cc1cc(S(=O)(=O)C2CC2)cc(=O)n1[C@H](CC1CCCC1)C(=O)Nc1ncc(F)s1` [Example 163, (R)-3-cyclopentyl-2-(4-(cyclopropylsulfonyl)-6-methyl-2-oxopyridin-1(2H)-yl)-N-(5-fluorothiazol-2-yl)propanamide], which EC50 is on record?
A: The EC50 was > 15.8 µM.

Q: For `Cc1cc(S(=O)(=O)C2CCCC2)cc(=O)n1[C@H](CC1CCOCC1)C(=O)Nc1ccc(F)cn1` [Example 164, (R)-2-(4-(cyclopentylsulfonyl)-6-methyl-2-oxopyridin-1(2H)-yl)-N-(5-fluoropyridin-2-yl)-3-(tetrahydro-2H-pyran-4-yl)propanamide], which EC50 is on record?
A: Its EC50 is > 15.8 µM.

Q: How did the EC50 turn out when `Cc1cc(S(=O)(=O)C2CCCC2)cc(=O)n1[C@@H](CC1CCOCC1)C(=O)Nc1ccc(F)cn1` [Example 165, (S)-2-(4-(cyclopentylsulfonyl)-6-methyl-2-oxopyridin-1(2H)-yl)-N-(5-fluoropyridin-2-yl)-3-(tetrahydro-2H-pyran-4-yl)propanamide] was run?
A: Its EC50 is 1.58 to 15.8 µM.
